Data as given in US20260337187A1, “COMPOUNDS FOR TREATMENT OF INFLAMMATORY PROCESSES” (THORNE LIMITED, priority 2022, published 2026).
Like-named read-outs stand apart in the source and are kept apart here.

What was measured:
Format in all cases: cell-based
[1] = tested on: SWAP-70; test: FACS-FRET of SWAP-70 dimerization in living cells
Protocol: B2 was added to the cells 15 minutes prior to stimulation.
(§1) FACS-FRET of SWAP-70 in living cells: The method was in line with that previously described by Betaneli and Jessberger (2020). Briefly, two versions of SWAP-70, differently tagged with the fluorescent dyes Cerulean and Venus, were stably expressed in 293T cells. Upon activation of the cells, e.g., by sodium vanadate, SWAP-70 dimerizes. Thereby the two fluorophores associate and generate a fluorescence resonance energy transfer (FRET) signal, which is measured by FACS. FACS-FRET allows to analyze large numbers of cells simultaneously.
as §1, with “Two” for “FACS-FRET of SWAP-70 in living cells: The method was in line with that previously described by Betaneli and Jessberger (2020). Briefly, two”, “simultaneously. […] B2 was added to the cells 15 minutes prior to stimulation.” for “simultaneously.”

[2] = tested on: human primary mast cells; test: Mast cell degranulation (Lamp-1/CD107a by FACS); details: IgE/anti-IgE; FIG. 6 (100, 50, 20 μM)
Protocol: Three different concentrations of B2 were tested (from left to right: 100, 50 and 20 μM) and the average of 11 experiments is shown as % reduction in degranulation (left plot). Degranulation was also measured at 3 time points (from left to right: 30, 15 and 5 minutes) after addition of 100 μM B2 (right plot).
Mast cell degranulation: Human primary mast cells were developed in StemSpan™ SFEM including 125 ng/ml SCF and 20 ng/ml IL3 from CD34+ hematopoietic precursor cells, and their purity after 4 to 5 weeks measured by FACS for c-kit and FceRI expression. This was measured by FACS using the appearance of Lamp-1 (CD107a) in line with that previously described by Klewer et al. (2021), applied here to human primary mast cells. Degranulation was triggered by preincubation of mast cells overnight with 1.3 μg/ml IgE followed by treatment with 0.2 μg/ml anti-IgE for 30 min.
To investigate the inhibition of mast cell degranulation by B2, degranulation was measured by FACS using the appearance of Lamp-1 (CD107a) on the surface of human primary mast cells upon degranulation. Degranulation was triggered by IgE/anti-IgE and B2 was applied 30 minutes before adding IgE. Three different concentrations of B2 were tested; from left to right in FIG. 6 (left plot): 100, 50 and 20 μM. […] Degranulation was also measured at 3 time points after addition of 100 μM B2 (FIG. 6, right plot).

[3] = tested on: human primary neutrophils; test: Neutrophil NETosis (PMA or pyocyanin triggered, extracellular DNA, Sytox Green); details: 3 hours (FIG. 3)
Protocol: The effect of 3 different concentrations (from left to right for each treatment: 100, 50 and 20 μM) of B2 is shown as % reduction compared to untreated control; average of 3 experiments.
Neutrophil NETosis: Neutrophil production of extracellular traps, NETosis, was measured on human primary neutrophils, isolated from fresh blood samples as described above or by Pancoll gradient centrifugation. Neutrophils in RPMI at 4×10^6 cells/ml were triggered to undergo NETosis in wells of a 96-well plate at a total cell number of 2×10^5 cells per well. The cells were treated for 3 hours with either the […] phorbol myristate acetate (100 nM PMA) or the bacterial product pyocyanin (at 10 μM). Extracellular DNA was measured by fluorometry using the dye Sytox™ Green and/or by fluorescence microscopy.
To investigate the effect of B2 on neutrophil NETosis, human primary neutrophils, isolated from fresh blood samples, were triggered to undergo NETosis (the expulsion of DNA in the environment) by treatment for 3 hours with either the […] phorbol myristate acetate (PMA) or the bacterial product pyocyanin. Extracellular DNA was measured by photometry using the dye Sytox™ Green.

[4] = tested on: Human primary coronary artery endothelial cells (HCAEC); test: Coronary artery endothelial cell cytokine release (TNFα triggered, cytokine array); details: 50 μM B2, TNFα
Protocol: Human primary coronary artery endothelial cells (HCAEC) were triggered to produce cytokines by the pro-inflammatory cytokine TNFα. The levels of 105 cytokines in the cell culture supernatant were measured by the R&D Systems Human XL cytokine array and a fluorescence-based photometric read-out. The table lists cytokines whose production was reduced by >50% (left) or 20 to 50% upon treatment with 50 μM B2 (right).

In the case of `Cc1onc(-c2ccccc2Cl)c1C(=O)Nc1nc2ccc([N+](=O)[O-])cc2s1` [B2, 3-(2-chlorophenyl)-5-methyl-N-(6-nitrobenzo[d]thiazol-2-yl)isoxazole-4-carboxamide], the “FACS-FRET signal, SWAP-70 dimerization at earlier time intervals” value ([1]; 50 μM B2, 5-10 and 10-15 minutes after stimulation, B2 added 15 minutes prior) is reported as “inhibition by 50 μM B2 at earlier time intervals”, the “FACS-FRET signal (FRET efficiency), SWAP-70 dimerization” value ([1]; 50, 25 and 10 μM B2, 20 minutes after stimulation, B2 added 15 minutes prior) is reported as “inhibition of the FACS-FRET signal” and the “SWAP-70 dimerization in living cells” value ([1]; 293T cells, sodium vanadate activation) is reported as “inhibits SWAP-70 dimerization in living cells”. The “IgE-mediated mast cell degranulation” value [2] was “inhibited by B2 in IgE-mediated degranulation”, the “neutrophil NETosis” value [3] was “substantially reduced” and the inhibition at 50 µM ([4]; read-out: CCL5 production, inhibition) was 20 to 50%. For the same compound, the inhibition at 50 µM ([4]; read-out: CXCL1 production, inhibition) was 20 to 50%, the inhibition at 50 µM ([4]; read-out: CXCL5 production, inhibition) was over 50% and the inhibition at 50 µM ([4]; read-out: CXCL10 production, inhibition) was over 50%. For the same compound, the inhibition at 50 µM ([4]; read-out: CXCL11 production, inhibition) was over 50%, the inhibition at 50 µM ([4]; read-out: GM-CSF production, inhibition) was 20 to 50% and the inhibition at 50 µM ([4]; read-out: ICAM1 production, inhibition) was 20 to 50%. For the same compound, the inhibition at 50 µM ([4]; read-out: IGFBP2 production, inhibition) was over 50%, the inhibition at 50 µM ([4]; read-out: Thrombospondin-1 production, inhibition) was over 50% and the inhibition at 50 µM ([4]; read-out: VCAM1 production, inhibition) was over 50%.
